Source: the supplement of paper PMC10307832

Tests used:
Test in all cases: relative viability (nuclei count vs DMSO), 5 days (fraction); higher = more cells survive
R406 + Linsitinib = compound: COc1cc(Nc2ncc(F)c(Nc3ccc4c(n3)NC(=O)C(C)(C)O4)n2)cc(OC)c1OC [R406] + C[C@]1(O)C[C@@H](c2nc(-c3ccc4ccc(-c5ccccc5)nc4c3)c3c(N)nccn32)C1 [Linsitinib] (partner 1 µM)
Summary of the method: (§1)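 Lung cancer cell lines in 1536-well plates got either a single drug or a fixed anchor-drug dose together with five library-drug doses (not always all listed) in √10 steps, by pin tool, on the day after seeding. Nuclei were counted after 5 days, and relative viability is the treated-to-vehicle ratio of nuclei counts. Values are medians of duplicate plates.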

R406 + Palbociclib = compound: COc1cc(Nc2ncc(F)c(Nc3ccc4c(n3)NC(=O)C(C)(C)O4)n2)cc(OC)c1OC [R406] + CC(=O)c1c(C)c2cnc(Nc3ccc(N4CCNCC4)cn3)nc2n(C2CCCC2)c1=O [Palbociclib] (partner 0.5 µM)
Summary of the method: as §1

R406 + Trametinib = compound: COc1cc(Nc2ncc(F)c(Nc3ccc4c(n3)NC(=O)C(C)(C)O4)n2)cc(OC)c1OC [R406] + CC(=O)Nc1cccc(-n2c(=O)n(C3CC3)c(=O)c3c(Nc4ccc(I)cc4F)n(C)c(=O)c(C)c32)c1 [Trametinib] (partner 0.02 µM)
Summary of the method: as §1

R406 + Navitoclax = compound: COc1cc(Nc2ncc(F)c(Nc3ccc4c(n3)NC(=O)C(C)(C)O4)n2)cc(OC)c1OC [R406] + CC1(C)CCC(c2ccc(Cl)cc2)=C(CN2CCN(c3ccc(C(=O)NS(=O)(=O)c4ccc(N[C@H](CCN5CCOCC5)CSc5ccccc5)c(S(=O)(=O)C(F)(F)F)c4)cc3)CC2)C1 [Navitoclax] (partner 0.5 µM)
Summary of the method: as §1

Cell Line | relative viability (R406 + Linsitinib; first compound 0.08 µM) | relative viability (R406 + Linsitinib; first compound 0.253 µM) | relative viability (R406 + Linsitinib; first compound 0.8 µM) | relative viability (R406 + Linsitinib; first compound 2.53 µM) | relative viability (R406 + Linsitinib; first compound 8 µM) | relative viability (R406 + Palbociclib; first compound 0.08 µM) | relative viability (R406 + Palbociclib; first compound 0.253 µM) | relative viability (R406 + Palbociclib; first compound 0.8 µM) | relative viability (R406 + Palbociclib; first compound 2.53 µM) | relative viability (R406 + Palbociclib; first compound 8 µM) | relative viability (R406 + Trametinib; first compound 0.08 µM) | relative viability (R406 + Trametinib; first compound 0.253 µM) | relative viability (R406 + Trametinib; first compound 0.8 µM) | relative viability (R406 + Trametinib; first compound 2.53 µM) | relative viability (R406 + Trametinib; first compound 8 µM) | relative viability (R406 + Navitoclax; first compound 0.08 µM) | relative viability (R406 + Navitoclax; first compound 0.253 µM) | relative viability (R406 + Navitoclax; first compound 0.8 µM) | relative viability (R406 + Navitoclax; first compound 2.53 µM) | relative viability (R406 + Navitoclax; first compound 8 µM)
NCI-H1437 | 1.01 | 1.26 | 1.24 | 0.904 | 0.49 | 0.318 | 0.349 | 0.363 | 0.391 | 0.229 | 0.547 | 0.657 | 0.637 | 0.487 | 0.295 | 1.1 | 1.16 | 1.1 | 0.997 | 0.725
SW 1573 | 0.926 | 0.864 | 0.812 | 0.664 | 0.627 | 0.402 | 0.364 | 0.467 | 0.32 | 0.127 | 0.548 | 0.614 | 0.628 | 0.443 | 0.193 | 0.956 | 1.1 | 1.2 | 0.794 | 0.5
H3255 | 0.84 | 1.08 | 1.04 | 0.8 | 0.725 | 0.295 | 0.331 | 0.336 | 0.358 | 0.284 | 0.549 | 0.693 | 0.563 | 0.577 | 0.487 | 0.488 | 0.731 | 0.541 | 0.312 | 0.14
NCI-H1792 | 0.484 | 0.387 | 0.744 | 0.411 | 0.505 | 0.603 | 0.721 | 0.708 | 0.506 | 0.518 | 0.428 | 0.443 | 0.427 | 0.178 | 0.0999 | 0.536 | 0.804 | 0.89 | 0.6 | 0.582
NCI-H2087 | 1.29 | 1.04 | 0.914 | 1.03 | 0.709 | 0.231 | 0.26 | 0.26 | 0.23 | 0.243 | 0.227 | 0.218 | 0.197 | 0.194 | 0.156 | 1.03 | 0.882 | 1.05 | 1.06 | 0.694
HCC-366 | 0.676 | 0.776 | 0.87 |  | 0.0785 | 0.36 | 0.465 | 0.387 | 0.262 | 0.0616 | 0.342 | 0.411 | 0.42 | 0.234 | 0.0517 | 0.855 | 1.18 | 1.16 |  | 0.663
NCI-H838 | 1.03 | 1.15 | 1.12 | 0.645 | 0.522 | 0.227 | 0.236 | 0.247 | 0.179 | 0.107 | 0.526 | 0.598 | 0.684 | 0.256 | 0.115 | 1.14 | 1.23 | 1.34 | 0.802 | 0.305
LU99A | 0.518 | 0.499 | 0.572 |  | 0.197 | 0.343 | 0.392 | 0.422 | 0.273 | 0.26 | 0.532 | 0.522 | 0.56 | 0.458 | 0.358 | 0.761 | 0.72 | 1.11 |  | 0.229
HCC-78 | 0.534 | 0.394 | 0.544 | 0.489 | 0.25 | 0.457 | 0.525 | 0.501 | 0.467 | 0.427 | 0.757 | 0.687 | 0.749 | 0.504 | 0.424 | 0.729 | 0.899 | 0.876 | 0.508 | 0.43
NCI-H1755 | 0.924 | 1.02 | 1.02 | 0.779 | 0.688 | 0.419 | 0.456 | 0.422 | 0.421 | 0.397 | 0.679 | 0.788 | 0.714 | 0.704 | 0.465 | 0.983 | 1.04 | 0.982 | 0.573 | 0.483
NCI-H3122 | 0.976 | 0.921 | 0.982 | 1.01 | 0.98 | 0.18 | 0.184 | 0.178 | 0.237 | 0.238 | 0.234 | 0.218 | 0.206 | 0.241 | 0.234 | 1.06 | 0.971 | 1.02 | 1.02 | 0.82
PC-3 [JPC-3] | 0.981 | 0.977 | 1.01 | 1 | 0.791 | 0.518 | 0.591 | 0.582 | 0.549 | 0.45 | 0.801 | 0.738 | 0.81 | 0.669 | 0.475 | 0.828 | 0.819 | 0.833 | 0.685 | 0.6
SK-MES-1 | 1.04 | 1.13 | 1.1 | 0.569 | 0.488 | 0.313 | 0.297 | 0.307 | 0.259 | 0.192 | 0.561 | 0.531 | 0.553 | 0.304 | 0.218 | 1.22 | 1.18 | 1.31 | 0.817 | 0.678
NCI-H2347 | 0.928 | 1.01 | 1.06 | 0.848 | 0.71 | 0.423 | 0.415 | 0.453 | 0.446 | 0.406 | 0.304 | 0.285 | 0.282 | 0.244 | 0.255 | 0.736 | 0.824 | 0.95 | 0.663 | 0.529
NCI-H2228 | 0.729 | 0.813 | 0.889 | 0.273 | 0.154 | 0.728 | 1.07 | 0.688 | 0.244 | 0.427 | 0.501 | 0.503 | 0.731 | 0.0769 | 0.432 | 1.17 | 1.33 | 0.996 | 0.628 | 0.168
